The target of one series is Prolyl endopeptidase (Sus scrofa, UniProt P23687).
Series [1] can be described thus: Partition coefficient (logP). The conditions noted are these: octanol/water. It is filed as physicochemical.
Series [2] deals with Prolyl endopeptidase (Sus scrofa) (UniProt P23687). As to the kind of experiment: Compound was tested for in vitro inhibition of prolyl oligopeptidase (POP) from pig brain at 0.1 mM.
Prolyl endopeptidase (Sus scrofa), sequence (P23687 whole entry, looked up): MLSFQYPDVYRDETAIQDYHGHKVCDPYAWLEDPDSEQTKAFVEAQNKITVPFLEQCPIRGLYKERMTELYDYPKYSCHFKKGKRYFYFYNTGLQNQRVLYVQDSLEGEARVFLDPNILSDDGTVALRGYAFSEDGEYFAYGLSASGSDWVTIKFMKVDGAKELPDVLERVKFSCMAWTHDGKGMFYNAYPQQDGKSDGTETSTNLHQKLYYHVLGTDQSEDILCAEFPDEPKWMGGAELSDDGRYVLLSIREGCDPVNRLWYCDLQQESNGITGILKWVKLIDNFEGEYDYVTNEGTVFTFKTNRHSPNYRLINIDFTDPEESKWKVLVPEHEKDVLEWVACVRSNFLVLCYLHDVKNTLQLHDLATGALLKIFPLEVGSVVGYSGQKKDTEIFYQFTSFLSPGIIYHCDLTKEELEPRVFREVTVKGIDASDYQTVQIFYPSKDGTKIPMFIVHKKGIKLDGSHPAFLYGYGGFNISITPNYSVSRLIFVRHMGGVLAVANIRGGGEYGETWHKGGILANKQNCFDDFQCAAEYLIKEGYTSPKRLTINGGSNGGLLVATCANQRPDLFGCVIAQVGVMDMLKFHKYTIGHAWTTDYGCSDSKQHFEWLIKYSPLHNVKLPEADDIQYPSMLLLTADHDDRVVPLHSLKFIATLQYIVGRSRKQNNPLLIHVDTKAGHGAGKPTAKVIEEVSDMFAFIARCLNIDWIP

Prolyl endopeptidase, sequence (P23687 whole entry): as the sequence (P23687 whole entry, looked up) above

In the case of `N#C[C@H]1CCCN1C(=O)[C@@H]1CCCN1C(=O)c1cccc(C(=O)N2CCC[C@@H]2C(=O)c2ccccc2)c1`, it took 1.3 nM to reach half-maximal inhibition against Prolyl endopeptidase (IC50). This molecule came in with a logP in series [1] of 1.1.

With `O=C(CO)[C@@H]1CCCN1C(=O)[C@@H]1CCCN1C(=O)c1cccc(C(=O)N2CCC[C@H]2C(=O)N2CCCC2)c1`, on Prolyl endopeptidase, it took 0.39 nM to reach half-maximal inhibition (IC50). For the molecule `O=C(N[C@@H](Cc1ccccc1)C(=O)N1CCCC1)c1cccc(C(=O)N[C@H](Cc2ccccc2)C(=O)N2CCCC2)c1`, the half-maximal inhibitory concentration (IC50) on Prolyl endopeptidase turned out to be 81 nM. In the case of `O=C(NCC(=O)N1CCCC1)c1cccc(C(=O)NCC(=O)N2CCCC2)c1`, the IC50 on Prolyl endopeptidase was 640 nM.

At Prolyl endopeptidase, `O=C([C@H]1CCCN1C(=O)c1cccc(C(=O)N2CCC[C@H]2C(=O)N2CCNCC2)c1)N1CCCC1` returned a half-inhibitory concentration (IC50) of 33 nM. On Prolyl endopeptidase, `O=C(CO)[C@H]1CCCN1C(=O)[C@@H]1CCCN1C(=O)c1cccc(C(=O)N2CCC[C@@H]2C(=O)C2CCCC2)c1` came in with an IC50 of 0.61 nM. Moreover, the logP in series [1] was 0.2. The molecule `COC(=O)[C@H]1CCCN1C(=O)c1cccc(C(=O)N2CCC[C@H]2C(=O)C2CCCC2)c1` registered an IC50 on Prolyl endopeptidase of 640 nM.

As to `CSCC[C@H](NC(=O)c1cccc(C(=O)N[C@H](CCSC)C(=O)N2CCCC2)c1)C(=O)N1CCCC1`, half-maximal inhibition against Prolyl endopeptidase (IC50) was put at 110 nM. The same measure, in the same setting: to `CC(C)(C)OC(=O)N1CCN(C(=O)[C@H]2CCCN2C(=O)c2cccc(C(=O)N3CCC[C@H]3C(=O)N3CCCC3)c2)CC1` belongs 170 nM; to `C[C@H](NC(=O)c1cccc(C(=O)N2CCC[C@H]2C(=O)N2CCCC2)c1)C(=O)N1CCCC1`, 39 nM. On the same count and under the same terms, to `O=C([C@H]1CCCN1C(=O)c1cccc(C(=O)N2CCC[C@H]2C(=O)N2CCCCCC2)c1)N1CCCC1` belongs 23 nM. With `CC(C)C(=O)[C@H]1CCCN1C(=O)c1cccc(C(=O)N2CCC[C@H]2C(=O)N2CCC[C@@H]2C#N)c1`, at Prolyl endopeptidase, the IC50 was determined as 1.6 nM. In series [1], this molecule had a log partition coefficient (logP) of 0.3. In turn, `N#C[C@H]1CCCN1C(=O)[C@@H]1CCCN1C(=O)c1cccc(C(=O)N2CCC[C@@H]2C(=O)C2CCCCC2)c1` had an IC50 against Prolyl endopeptidase of 0.72 nM.

As to `COC(=O)[C@H]1CCCN1C(=O)c1cccc(C(=O)N2CCC[C@H]2C(=O)N2CCCC2)c1`, the IC50 on Prolyl endopeptidase stood at 54 nM. At Prolyl endopeptidase, `CC(=O)[C@H]1CCCN1C(=O)c1cccc(C(=O)N2CCC[C@H]2C(=O)N2CCC[C@@H]2C#N)c1` came in with a 50% inhibitory concentration (IC50) of 4.2 nM. Further, the logP in series [1] is -0.6.

`N#C[C@H]1CCCN1C(=O)[C@@H]1CCCN1C(=O)c1cccc(C(=O)N2CCC[C@@H]2C(=O)C2CCCC2)c1`: the IC50 against Prolyl endopeptidase was 1.1 nM. The molecule further yielded a logP in series [1] of 0.8. With `O=C(c1ccccc1)[C@H]1CCCN1C(=O)c1cccc(C(=O)N2CCC[C@H]2C(=O)N2CCCC2)c1`, the IC50 against Prolyl endopeptidase was found to be 18 nM. The same measure, in the same setting: as for `CC(=O)[C@H]1CCCN1C(=O)c1cccc(C(=O)N2CCC[C@H]2C(=O)N2CCCC2)c1`, the figure is 65 nM. `CC(C)(CC(=O)N1CCC[C@H]1C(=O)C1CCCC1)CC(=O)N1CCC[C@H]1C(=O)N1CCC[C@H]1C(=O)CO` showed a logP in series [1] of 0.7.

For `O=C(C1CCCC1)[C@H]1CCCN1C(=O)c1cccc(C(=O)N2CCC[C@H]2C(=O)C2CCCC2)c1`, inhibition against Prolyl endopeptidase was half-maximal at 78 nM (IC50). Further, the logP in series [1] stood at 2.7. In the case of `O=C(C1CCCC1)[C@H]1CCCN1C(=O)c1cccc(C(=O)N2CCC[C@H]2C(=O)N2CCCC2)c1`, on Prolyl endopeptidase, the 50% inhibitory concentration (IC50) turned out to be 14 nM. `O=C([C@@H]1CCCN1C(=O)c1cccc(C(=O)N2CCC[C@H]2C(=O)N2CCCC2)c1)N1CCCC1`: the logP in series [1] is -0.2. For `C[C@H](NC(=O)c1cccc(C(=O)N[C@H](C)C(=O)N2CCCC2)c1)C(=O)N1CCCC1`, the concentration for half-maximal inhibition (IC50) against Prolyl endopeptidase came out at 87 nM. For the molecule `CC(=O)[C@H]1CCCN1C(=O)c1cccc(C(=O)N2CCC[C@H]2C(C)=O)c1`, the inhibition in series [2] is 54%. Turning to `CC(=O)[C@H]1CCCN1C(=O)c1cccc(C(=O)N2CCC[C@H]2C(=O)N2CCC[C@@H]2C(=O)CO)c1`, inhibition against Prolyl endopeptidase was half-maximal at 1.2 nM (IC50). The same measure, in the same setting: to `CC(C)(CC(=O)N1CCC[C@H]1C(=O)C1CCCC1)CC(=O)N1CCC[C@H]1C(=O)N1CCC[C@H]1C#N` belongs 0.57 nM; to `O=C(NCc1ccccc1)[C@@H]1CCCN1C(=O)c1cccc(C(=O)N2CCC[C@@H]2C(=O)N2CCCC2)c1`, 31 nM.

The IC50 is the point on the concentration scale where inhibition reaches its midpoint. By logP is commonly meant the decadic logarithm of the partition coefficient of the neutral form, usually between octanol and water. Higher therefore signals higher lipophilicity. In general, inhibition refers to the change of the read-out against control, counted positive when it falls. Low values mean little suppression, high ones strong suppression.

These data come from ChEMBL document CHEMBL1145128, “New prolyl oligopeptidase inhibitors developed from dicarboxylic acid bis(l-prolyl-pyrrolidine) amides” (J Med Chem, 2003).
